Source: patent US20140377171A1, “Imaging and Treatment of Neuroendocrine Tumors with Glucose - Dependent Insulinotropic Polypeptide or Analogues or Antagonists Thereof” (priority 2011, published 2014)
One block for each substance: values may come before it.

Experiments:
[1] = cited from earlier work; for biological activity: truncated forms of GIP
[2] = tested on: islet cells; assay: β-Cell imaging with GIP radioligands, ex vivo pancreas autoradiography; format: in vivo, Sprague-Dawley rats; conditions: i.v., with or without unlabeled GIP(1-30); autoradiography correlated with insulin immunostaining
Description: Animals were euthanized and the pancreas was extracted, immediately frozen, and sectioned. The sections were apposed to radiosensitive films, scanned, and immunostained for insulin.

[3] = tested on: TT cells (human medullary thyroid cancer cells); conditions: 1 nM to 1000 nM GIP for 3 hours, supernatant
Method: Calcitonin levels (C, pg/ml) were determined from the cell supernatant using the Calcitonin-kit from Siemens.
TT cells (derived from a human medullary thyroid carcinoma; ATCC Number: CRL-1803) were plated in 24-well plates (100′000 cells per well) and cultured for 48 hours in growth medium (nutrient mixture F12 Ham Kaighn's modification containing L-glutamine and supplemented with 10% fetal bovine serum) at 37° C. and 5% CO2. Subsequently the growth medium was replaced by the serum-free challenge medium (RPMI 1640, 10 mM HEPES and GlutaMax-I) and the cells were incubated for further 48 hours at 37° C. and 5% CO2. […] As negative control cells were treated with challenge medium containing vehicle alone. The cells were incubated for 3 hours at 37° C. and 5% CO2.

[4] = tested on: GIP receptor; conditions: cited from earlier work
[5] = tested on: GIP receptor; conditions: cited from earlier work; remark: listed apart in the source
[6] = target: T1, GIP receptors (Homo sapiens, UniProt P48546); assay: In vitro GIP receptor autoradiography: displacement of 125I-GIP(1-30) in tissue sections; format: binding; conditions: increasing concentrations of cold peptide; tumor and normal pancreatic islets, all examples
T1 construct: from tissue; host or cells: fresh frozen human tumor tissue (neuroendocrine tumors) and non-neoplastic human tissue (pancreatic islets) from surgical resection
T1 sequence (P48546 22-466): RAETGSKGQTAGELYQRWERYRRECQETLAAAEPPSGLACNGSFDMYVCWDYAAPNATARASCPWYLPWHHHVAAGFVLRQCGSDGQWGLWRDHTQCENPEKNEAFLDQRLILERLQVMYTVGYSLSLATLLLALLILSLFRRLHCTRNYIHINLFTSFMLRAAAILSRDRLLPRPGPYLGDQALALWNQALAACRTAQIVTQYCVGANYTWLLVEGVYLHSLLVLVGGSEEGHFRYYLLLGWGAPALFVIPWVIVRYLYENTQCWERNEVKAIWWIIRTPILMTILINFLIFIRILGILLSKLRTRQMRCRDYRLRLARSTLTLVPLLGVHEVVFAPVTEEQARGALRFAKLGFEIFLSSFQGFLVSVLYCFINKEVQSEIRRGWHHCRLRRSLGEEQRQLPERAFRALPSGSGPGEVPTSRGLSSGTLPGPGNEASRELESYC
Method: It was radiolabeled by the lactoperoxidase method and purified by HPLC (Anawa, Wangen, Switzerland). The two lodo-Tyrosine analogues (peak 1 iodinated at Tyr^1 and peak 2 iodinated at Tyr^10) were analyzed by LC-ESI-MS-MS (R. Brunisholz, Functional Genomics Center Zürich, ETHZ). […] After incubation, the slides were washed five times in ice-cold Tris-HCl buffer (170 mM; pH 8.2) containing 0.25% BSA and twice in ice-cold Tris-HCl buffer without BSA. The slides were dried for 15 minutes under a stream of cold air and then exposed to Kodak films Biomax MR® for seven days at 4° C. The signals on the films were analyzed in correlation with morphology using corresponding H&E stained tissue slides. The receptor density was quantitatively assessed using tissue standards for iodinated compounds (Amersham, Aylesbury, UK) and a computer-assisted image processing system (Analysis Imaging System, Interfocus, Mering, Germany).

Substance: GIP(1-30): truncated form of GIP; cold human GIP(1-30), parent peptide of the radioligand (YAEGTFISDYSIAMDKIHQQDFVNWLLAQK; Gastric inhibitory polypeptide; UniProt P09681 52-81, looked up, fragment)
biological activity [1]: retain a high degree of biological activity

Substance: ^111In-DOTA-GIP(1-30): GIP(1-30) carrying 111In complexed through DOTA chelator; GIP radioligand for β-cell imaging
localisation of radioligand binding in pancreas [2]: restricted to islet cells

Substance: glucose-dependent insulinotropic polypeptide [GIP]
calcitonin release [3]: stimulates calcitonin release

Substance: GIP7-30-NH2: GIP fragment amide binding with high affinity, antagonist
receptor binding [4]: high affinity | functional mode at the GIP receptor [5]: act as antagonists

Substance: GIP1-14: GIP fragment capable of receptor binding (YAEGTFISDYSIAM; Gastric inhibitory polypeptide; UniProt P09681 52-65, looked up, fragment)
receptor binding [4]: capable of receptor binding | activation of adenylyl cyclase [5]: activation of adenylyl cyclase

Substance: GIP19-30: C-terminal GIP fragment capable of receptor binding (QQDFVNWLLAQK; Gastric inhibitory polypeptide; UniProt P09681 70-81, looked up, fragment)
receptor binding [4]: capable of receptor binding | activation of adenylyl cyclase [5]: activation of adenylyl cyclase

displacement of 125I-GIP(1-30) (affinity) [6]: not displaced
Substance: GLP-2: GLP-2 receptor selective agonist (Bachem)

displacement of 125I-GIP(1-30) (affinity) [6]: not displaced
Substance: glucagon(1-29): glucagon receptor selective agonist (Bachem)

Substance: GIP3-42: peptide resulting from cleavage of GIP by DPP-IV; antagonist (EGTFISDYSIAMDKIHQQDFVNWLLAQKGKKNDWKHNITQ; Gastric inhibitory polypeptide; UniProt P09681 54-93, looked up, fragment)
insulinotropic activity ([1]; product of DPP-IV cleavage): lacking insulinotropic activity | functional mode at the GIP receptor [5]: antagonist of GIP1-42 induced cAMP production

Substance: GIP1-39: truncated form of GIP (YAEGTFISDYSIAMDKIHQQDFVNWLLAQKGKKNDWKHN; Gastric inhibitory polypeptide; UniProt P09681 52-90, looked up, fragment)
biological activity [1]: retain a high degree of biological activity

Substance: GIP6-30: GIP fragment binding with high affinity, antagonist (FISDYSIAMDKIHQQDFVNWLLAQK; Gastric inhibitory polypeptide; UniProt P09681 57-81, looked up, fragment)
receptor binding [4]: high affinity | functional mode at the GIP receptor [5]: act as antagonists
